Test results: patent US10130629B2, “Pharmaceutical combinations” (Novartis AG, priority 2015, dated 2018)

How the values were obtained:
[1] = system: HuH-7 hepatocellular carcinoma cells; experiment: CellTiter Glo (CTG) proliferation assay; format: cell-based; details: Homo sapiens, Huh-7, 72 h; 3 days incubation; half-maximal growth inhibition; read-out: HUH7 proliferation (nM) CTG
Description: CellTiter Glo (CTG) assay: The functional effect of compounds on cell proliferation is assessed using HuH-7 hepatocellular carcinoma cells obtained from the Japanese Collection of Research Bioresources Cell Bank (Cat# JCRB0403) and cultured in the vendor-recommended medium (DMEM high glucose (Amimed Cat#1-26F01-I), 10% foetal calf serum (Invitrogen Cat#16140-071), 1 mM sodium pyruvate (Amimed Cat#5-60F00-H), 1× Penicillin/Streptomycin (Amimed Cat#4-01F00-H)) at 37° C. in a humidified 5% CO2 incubator. Compound-mediated suppression of cell proliferation/viability is assessed by quantification of cellular ATP levels using the CellTiter-Glo (CTG) reagent (Promega, Cat# G7573). […] Dose-response effects are assessed by 3-fold serial dilutions of the test compound, starting at 10 μM. Following incubation of the cells for 3 days at 37° C. and 5% CO2, the effect of inhibitors on cell viability is quantified following addition of 50 μl CTG and luminescence measurement (integration time: 500 ms) as per vendor manual, using a correspondingly equipped multi-mode plate reader (M200Pro, TECAN, Switzerland). For data analysis, the assay background value determined in wells containing medium, but no cells, is subtracted from all data points. […] Compound concentrations leading to half-maximal growth inhibition ([…]) are determined using standard four parameter curve fitting (XLfit 5.2., IDBS, UK).

[2] = system: HuH-7 hepatocellular carcinoma cells; experiment: Methylene blue staining proliferation assay (MBS); format: cell-based; details: Homo sapiens, 72 hours after compound addition, read-out: HUH7 proliferation (nM) MBS
Description: Methylene blue staining proliferation assay (MBS): The effect of the compound on cell proliferation is assessed using HuH-7 hepatocellular carcinoma cells obtained from the Japanese Collection of Research Bioresources Cell Bank (Cat# JCRB0403) and cultured in the vendor-recommended medium (DMEM high glucose (Amimed Cat#1-26F01-I), 10% foetal calf serum (Invitrogen Cat#16140-071), 1 mM sodium pyruvate (Amimed Cat#5-60F00-H), 1× Penicillin/Streptomycin (Amimed Cat#4-01F00-H)) at 37° C. in a humidified 5% CO2 incubator. Specifically, 5000 cells/well were seeded in 96-well tissue culture plates (TPP Cat#92696) in a total media volume of 100 μl/well and increasing compound dilutions or DMSO were added 24 hours thereafter in triplicates. 72 hours after compound addition, cells were fixed by adding 25 μL/well of 20% glutaraldehyde (Sigma Aldrich Cat# G400-4) and incubated for 10 minutes at room temperature. Cells were washed three times with H2O, 200 μL/well and stained with 100 μL/well 0.05% methylene blue (ABCR GmbH Cat# AB117904) for 10 minutes at room temperature. Cells were washed 3 times with H2O, 200 μL/well and then lysed by adding 200 μL/well of 3% HCl (Fluka Cat#84422) for 30 minutes at room temperature with shaking. Optical density was measured at A650 nm. […]

With `COCCNc1cc(NC(=O)N2CCCc3cc(CN4CCN(C)CC4=O)c(C=O)nc32)ncc1C#N` [Example 83, N-(5-cyano-4-((2-methoxyethyl)amino)pyridin-2-yl)-7-formyl-6-((4-methyl-2-oxopiperazin-1-yl)methyl)-3,4-dihydro-1,8-naphthyridine-1(2H)-carboxamide] the IC50 [1] was 60.9 nM and the IC50 [2] was 12 nM.
